Reference: patent publication US8524978B2, “Composition for production of plant body having improved sugar content, and use thereof” (Japan Science and Technology Agency, priority 2007, dated 2013)

How the values were obtained:
Type in all cases: in vivo
Lycopersicum esculentum [1] = test: Cultivation of Lycopersicum esculentum with GSSG or GSH, sensory tests of fruit (Example 1); conditions: 50 mL of 0.5 mM at root twice a week, 60 days
From the text: In the present example, Lycopersicum esculentum was cultivated with use of GSSG or GSH. Details of cultivation are described below.
First, Lycopersicum esculentum seedlings (TAKII & CO. Ltd., product name: Osama tomato reika) were transplanted into a hydroponic culture pot ( 1/2000 a). In the hidroponic culture pot, 6 L of vermiculite (ASAHI INDUSTRIES Co., LTD.), 3 L of KUREHA horticultural soil (KUREHA CORPORATION), and 3 L of vermiculite were layered as a lower, middle, and upper layers, respectively.
During the cultivation of Lycopersicum esculentum, 50 mL of 0.5 mM GSSG or 0.5 mM GSH (adjusted with 0.1N NaOH to be at pH 7) was applied twice a week at a root per plant. The Lycopersicum esculentum plants were grown for 60 days without being subjected to bud removal. Last 10 days was used as a harvest period for harvesting fruit of the plants. For comparison, a Lycopersicum esculentum plant was grown under the same condition, except that GSSG and GSH were not applied. To the plants of any condition, 3 g of Kumiai phosphorate ammonium nitrate potassium S-604 (Chisso Asahi Fertilizer Co., Ltd.) was applied as an additional fertilizer once in 2 weeks.
(§1) Next, the fruit harvested was subjected to sensory tests of sugar content and the like. As a result, it was determined that fruit of the plant applied with GSSG increased in sugar content compared to that of the plant not applied with GSSG or GSH. Further, it was determined that the plant applied with GSSG increased in number of fruit. It was determined that fruit of the plant applied with GSH increased in sugar content and acidity.

Lycopersicum esculentum [2] = test: Sugar content determination of Lycopersicum esculentum fruit with refractometer (Example 2); conditions: 0.5 mM applied as in Example 1; compared to Cont and Cont2 Sunny conditions; ANOVA 5%
From the text: Cultivated were Lycopersicum esculentum plants to which GSSG or GSH was applied by the method described in Example 1. Then, obtained fruit of the plants was subjected to sugar content determination using “Pocket” Refractometer APAL-1 (ATAGO CO., LTD.).
For comparison, Lycopersicum esculentum plants were cultivated under two types of conditions (referred to as “Cont” and “Cont2 Sunny”). In the Cont condition, Lycopersicum esculentum plants were cultivated by the same method as in Example 1, except that GSSG and GSH were not applied. In the Cont2 Sunny condition, a Lycopersicum esculentum plant was not applied with GSSG or GSH and was independently cultivated at a site sufficiently irradiated with sunlight so that illuminance on the Lycopersicum esculentum plant becomes 100%. In the Cont condition and a condition in which GSSG or GSH was applied, the plants were planted at intervals of 40 cm to 50 cm. In this case, a plant may intercept light irradiating another plant. Therefore, illuminance on such plants becomes less than 100%.
In the condition in which GSSG was applied, the condition in which GSH is applied, and the Cont condition, three Lycopersicum esculentum plants were cultivated, respectively. In the Cont2 Sunny condition, one Lycopersicum esculentum plant was cultivated. […]

[3] = test system: Vitis labrusca (Delaware); test: Cultivation of Vitis labrusca with GSSG or GSH, sensory test (Example 5)
Experimental: In the present invention, Vitis labrusca was cultivated. Specifically, immediately after flowering of a Vitis labrusca (Delaware) plant, a mixed solution of 1 mM gibberellin (GA3) and 1 mM of an agent was applied to anthotaxy of the plant. The agent was GSSG or GSH. Then, the plant was coated with the agent and thereafter produced fruit was harvested. For comparison, a Vitis labrusca plant was cultivated in the same way, except that GA3, but not GSSG or GSH, was applied, and fruit thereof was harvested and subjected to a sensory test described below.
The fruit harvested was subjected to a sensory test of sugar content. As a result, it was determined that fruit of the plant applied with GA3 and GSSG or GSH increased in sugar content compared to that of the plant applied with only GA3. Further, it was determined that the plant applied with GSSG and GA3 increased in size of fruit.

Lycopersicum esculentum [4] = test: Change of sugar content over time after one application of GSH or GSSG (Example 6); conditions: 50 mL of 0.5 mM once at root 90 days after sowing; fruit harvested day 0 to day 4
Experimental: In the present example, a sugar content of a plant was determined after a substance for regulating an oxidation-reduction state of a cell was applied to the plant. The substance for regulating an oxidation-reduction state of a cell was GSH or GSSG. As in the case of Example 1, Lycopersicum esculentum was used as the plant. Specifically, the following operations were carried out.
Ninety days after sowing of Lycopersicum esculentum seeds, Lycopersicum esculentum plants were subjected to a GSH or GSSG treatment. The Lycopersicum esculentum plants were cultivated by the same method as in Example 1 except for the GSH or GSSG treatment. The GSH or GSSG treatment was such that 50 mL of 0.5 mM GSSH or 0.5 mM GSH (adjusted with 0.1N NaOH to be at pH 7) was applied once at a root per plant. Then, fruit of the plants was harvested every day from the 0th day until the 4th day after application of GSH or GSSG, and subjected to sugar content determination. […] FIG. 3 is a graph showing a determination result of relation between sugar content and the number of days from an application day of GSH or GSSG. In FIG. 3, the vertical scale indicates sugar content (Brix, unit: %) and the horizontal scale indicates days from the application day. In FIG. 3, lines labeled with circles, triangles, and squares show results of the plants applied with GSH, GSSG, and no GSH and no GSSG, respectively. […]

Fragaria ananassa [5] = test: Cultivation of Fragaria ananassa with GSSG or GSH, sensory tests of fruit (Example 10); conditions: 50 mL of 0.2 or 0.5 mM GSSG, or 0.4 or 0.5 mM GSH, once a week at root, 63 days
Experimental: In the present example, Fragaria ananassa was cultivated with use of GSSG or GSH. Details of cultivation are described below.
(§2) First, Fragaria ananassa seedlings were transplanted to a planter. In the planter, 6 L of vermiculite (ASAHI INDUSTRIES Co., LTD.), 3 L of KUREHA horticultural soil (KUREHA CORPORATION), and 3 L of vermiculite were layered as a lower, middle, and upper layers, respectively.
(§3) During cultivation of Fragaria ananassa plants, 50 mL of 0.2 mM or 0.5 mM GSSG or 50 mL of 0.4 mM or 0.5 mM GSH (adjusted with 0.1N NaOH to be at pH7) was applied once a week at a root per plant. The plants were grown for 63 days without being subjected to bud removal. For comparison, a Fragaria ananassa plant was grown under the same condition, except that GSSG and GSH were not applied. To the plants of any condition, 3 g of Kumiai phosphorate ammonium nitrate potassium S-604 (Chisso Asahi Fertilizer Co., Ltd.) was applied as an additional fertilizer once in 2 weeks.
as §1, with “sugar content and decreased in acidity compared to” for “sugar content compared to”, “It was also determined that” for “It was determined that”

Fragaria ananassa [6] = test: Sugar content determination of Fragaria ananassa fruit with refractometer (Example 10); conditions: 50 mL of 0.2 or 0.5 mM GSSG, or 0.4 or 0.5 mM GSH, once a week at root; significance level 5%
Experimental: as §2, §3
Further, the fruit obtained was subjected to sugar content determination using “Pocket” Refractometer APAL-1 (ATAGO CO., LTD.). For comparison, fruit not applied with GSSG or GSH was also subjected to the sugar content determination. […] In FIG. 7, the vertical scale indicates sugar content (Brix, unit: %).

## N[C@@H](CCC(=O)N[C@@H](CS)C(=O)NCC(=O)O)C(=O)O [GSH, reduced glutathione]
Lycopersicum esculentum [1]
  acidity of fruit (sensory test): increased
Lycopersicum esculentum [1]; compared to plant not applied with GSSG or GSH
  sugar content of fruit (sensory test): increased
Lycopersicum esculentum [2]
  sugar content of fruit (Brix): significantly increased
[3]; 1 mM agent mixed with 1 mM gibberellin (GA3), applied to anthotaxy, compared to plant applied with only GA3
  sugar content of fruit (sensory test): increased
[3]; applied without GA3
  sugar content: increased
Lycopersicum esculentum [4]
  sugar content of fruit (Brix) after application: rapidly improve
Fragaria ananassa [5]
  acidity of fruit (sensory test): increased
Fragaria ananassa [5]; vs plant not applied
  sugar content of fruit (sensory test): increased
Fragaria ananassa [6]
  sugar content of fruit (Brix), ANOVA versus fruit not applied: significant difference
